This note sets out measurements from paper PMC10581189, “Cesin, a short natural variant of nisin, displays potent antimicrobial activity against major pathogens despite lacking two C-terminal macrocycles” (Microbiology Spectrum, 2023).

Converted amounts (≈) assume the structure as drawn. Like-named read-outs stand apart in the source and are kept apart here. Ends that are not written are not given here.

In one series the target is proteinase K (Parengyodontium album, UniProt P06873). Put plainly: Stability against proteinase K (residual antimicrobial activity). The note with it: 1 mg/mL proteolytic enzyme (pH 7.2), relative antimicrobial activity against L. lactis MG1363, agar well; three biological replicates; Fig. 8B.
Chain of proteinase K (P06873 106-384): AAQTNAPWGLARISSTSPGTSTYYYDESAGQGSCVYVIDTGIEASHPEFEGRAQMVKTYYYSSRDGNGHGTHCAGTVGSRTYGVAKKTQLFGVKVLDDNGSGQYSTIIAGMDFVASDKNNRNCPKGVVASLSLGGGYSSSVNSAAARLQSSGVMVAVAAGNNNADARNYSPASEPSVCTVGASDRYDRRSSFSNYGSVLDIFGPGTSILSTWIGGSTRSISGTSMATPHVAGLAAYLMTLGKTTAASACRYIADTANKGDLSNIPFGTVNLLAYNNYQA
Series [1] relates to Enterococcus faecium LMG11423.
The nature of series [2]: Thermal stability (residual antimicrobial activity). The class given is physicochemical. The protocol:
(§1) An overnight culture of test strains was added at 0.1% (vol/vol) into melted GM17 agar at 45°C and poured in plates. After agar solidification, wells of 8 mm were bored and filled with 30 µL of the lantibiotic solution. When necessary, the lantibiotic was activated with 5 µL of nisP added directly into the well. Peptides were resuspended in 0.05% aqueous acetic acid solution and the cesin amount was determined using the NanoDrop (Thermo Scientific) calibrated with the extinction coefficient predicted by ExPASy (http://web.expasy.org/protparam/). The agar plates were incubated at 30°C overnight, after which, the zones of inhibition were measured. Zone diameters were measured in millimeters and recorded as area of the zone (πr^2) minus the area of the well (πr^2) in millimeters. Where necessary, cesin was compared with nisin and nisin(1–22). Assays were performed in triplicate.

Series [3] deals with Listeria monocytogenes LMG10470.
The test system of series [4] is Lactococcus lactis MG1363.
Series [5] concerns Staphylococcus aureus LMG15975 (MRSA).
Series [6] deals with Staphylococcus aureus LMG10147.
Series [7] concerns Enterococcus faecalis LMG16216 (VRE).
For series [8], the system named is Listeria monocytogenes TT82E.
The subject of series [9] is Enterococcus faecium LMG16003 (VRE).
Series [10] relates to Listeria monocytogenes LK132.
For series [11], the system named is nisin resistance protein (NSR). The note with it: 30 µL 0.1 mg/mL peptide, agar well, L. lactis NZ9000 (pNSR) vs L. lactis NZ9000 (pEmpty); three biological replicates; Fig. 8A.
A further series has as its system sheep erythrocytes. Nature of the series: Hemolytic activity assay. As to conditions: sheep erythrocytes 2% (vol/vol) in PBS, up to 64 µg/mL, 37°C for 40 min, absorbance 420 nm relative to Triton X-100, triplicate; Fig. 9. The format is cell-based. As for the experimental part: The hemolytic activity of cesin and nisin was determined as previously described ([65]). Briefly, fresh sheep blood (Sigma-Aldrich) was washed with 0.1 M PBS (pH 7.4; Sigma-Aldrich) three times to remove plasma (500 × g for 5 min), and then the erythrocytes were collected and diluted 1:50 in PBS. The lantibiotics were then added at final concentrations of 64, 32, 16, 8, 4, 2, and 0 µg/mL in PBS to wells containing 2% (vol/vol) washed erythrocytes. The cells were incubated at 37°C for 40 min, then centrifuged for 5 min at 3,100 g. The supernatants were transferred to a 96-well plate, and the absorbance was measured at a wavelength of 420 nm with a Synergy HT microplate reader (BioTek, Lucerne, Switzerland). The absorbance relative to the positive control, which was treated with 0.1% Triton X-100, was defined as the percentage of hemolysis. The analysis was carried out in triplicate.

In a further series the test system is E. faecium. Put plainly: Agar well diffusion assay of cesin analogs. The format is cell-based, Enterococcus faecium. As to conditions: triplicate, Fig. 5B, S1. The protocol: as §1
For orientation: A growth-free zone around the sample is the usual read-out of agar diffusion tests.

The subject of the next series is L. lactis MG1363. Put plainly: Agar well diffusion assay of cesin analogs. The class given is cell-based, Lactococcus lactis. The note with it: for antimicrobial activity compared to cesin: L. lactis MG1363, 30°C overnight, triplicate, Fig. 5B, 6B, S1. The protocol: as §1

The term MIC denotes the lowest concentration found to suppress growth. Lower therefore signals a more susceptible organism. For the compound `C=C1NC(=O)[C@H](Cc2c[nH]c3ccccc23)NC(=O)C(NC(=O)C(=CC)NC(=O)[C@@H](N)[C@@H](C)CC)CSC[C@@H](C(=O)NC2C(=O)N[C@@H](C)C(=O)NCC(=O)N[C@H](C(=O)N[C@H](C(=O)NC3C(=O)NCC(=O)N[C@@H](CCCNC(=N)N)C(=O)N[C@@H]([C@@H](C)CC)C(=O)N[C@@H](CCSC)C(=O)NCC(=O)N[C@H](C(=O)N[C@@H](CC(N)=O)C(=O)N[C@@H](CCCCN)C(=O)O)CSC3C)[C@@H](C)CC)CSC2C)NC(=O)[C@H](CC(C)C)NC1=O` (stereo partly shown) [Cesin], at proteinase K, the “stability against proteinase K” value is reported as “more resistant to proteinase K”. Further, the MIC in series [1] worked out at 5.13 µg/mL (≈ 2.41 µM); in the series with Bacillus cereus CH-85, 20.50 µg/mL (≈ 9.64 µM); in [3] it was 2.56 µg/mL (≈ 1.2 µM); in [4], 0.08 µg/mL (≈ 0.0376 µM); in series [5] it was 5.13 µg/mL (≈ 2.41 µM); in series [6], 5.13 µg/mL (≈ 2.41 µM). Moreover, the MIC worked out at 5.13 µg/mL (≈ 2.41 µM) in series [7], 5.13 µg/mL (≈ 2.41 µM) in series [8], 10.25 µg/mL (≈ 4.82 µM) in [9] and 10.25 µg/mL (≈ 4.82 µM) in series [10]. In addition, the “thermal stability, time stable” value in [2] was “stable for up to 4 h”. The “resistance to the cleavage action of NSR” value in series [11] is listed as “fully resistant”.
As for `C=C1NC(=O)[C@H]([C@@H](C)CC)NC(=O)C(NC(=O)C(=CC)NC(=O)[C@@H](N)[C@@H](C)CC)CSC[C@@H](C(=O)NC2C(=O)N3CCC[C@H]3C(=O)NCC(=O)N[C@H](C(=O)N[C@@H](CCCCN)C(=O)NC3C(=O)NCC(=O)N[C@@H](C)C(=O)N[C@@H](CC(C)C)C(=O)N[C@@H](CCSC)C(=O)NCC(=O)N[C@H](C(=O)N[C@@H](CC(N)=O)C(=O)N[C@@H](CCSC)C(=O)N[C@@H](CCCCN)C(=O)O)CSC3C)CSC2C)NC(=O)[C@H](CC(C)C)NC1=O` (stereo partly shown) [Nisin(1–22), reference compound], the MIC in series [1] was 41.00 µg/mL (≈ 19.2 µM); against Bacillus cereus CH-85 it was over 41.00 µg/mL; in series [3], 41.00 µg/mL (≈ 19.2 µM); in series [4], 1.28 µg/mL (≈ 0.598 µM); in series [5] it was 20.50 µg/mL (≈ 9.58 µM); in [6], 20.50 µg/mL (≈ 9.58 µM). Also, the MIC in [7] was over 41.00 µg/mL; in series [8] it was 10.25 µg/mL (≈ 4.79 µM); in series [9], over 41.00 µg/mL; in series [10] it was 41.00 µg/mL (≈ 19.2 µM).
Consider `C=C(NC(=O)[C@@H](NC(=O)[C@H](Cc1c[nH]cn1)NC(=O)[C@@H](NC(=O)[C@H](CO)NC(=O)[C@@H]1CSC(C)C2NC(=O)[C@H](C)NC(=O)C(NC(=O)[C@H](CCCCN)NC(=O)[C@H](CCSC)NC(=O)[C@H](CC(N)=O)NC(=O)[C@@H]3CSC(C)C(NC(=O)[C@H](CCCCN)NC(=O)[C@@H]4CSC(C)C(NC(=O)[C@@H]5CSCC(NC(=O)C(=CC)NC(=O)[C@@H](N)[C@@H](C)CC)C(=O)N[C@@H]([C@@H](C)CC)C(=O)NC(=C)C(=O)N[C@@H](CC(C)C)C(=O)N5)C(=O)N5CCC[C@H]5C(=O)NCC(=O)N4)C(=O)NCC(=O)N[C@@H](C)C(=O)N[C@@H](CC(C)C)C(=O)N[C@@H](CCSC)C(=O)NCC(=O)N3)C(C)SC[C@H](NC2=O)C(=O)N[C@@H](CC(N)=O)C(=O)N1)[C@@H](C)CC)C(C)C)C(=O)N[C@@H](CCCCN)C(=O)O` (stereo partly shown) [Nisin], for which, in the series on sheep erythrocytes, the hemolysis entry is given as “comparable to that of nisin”. For the same compound, the “thermal stability, time stable” value in [2] (incubated at 22°C, 55°C, 75°C, 95°C, read-out antimicrobial activity against L. lactis MG1363 (agar well), three biological replicates, Fig. 7A, B) was “stable for up to 4 h”. Besides, the “resistance to the cleavage action of NSR” value in series [11] is on record as “inactivated”.
For the compound “ITSWSLCTAGCITGRIMGCNKTATCHCSIHVSK (also: bicyclic or more (positions not given here)) [cesin NK, cesin-nisin(23–34) hybrid]”, the “antimicrobial activity compared to cesin” value with E. faecium and with L. lactis MG1363 was “significant loss of antimicrobial activity” throughout.
Take “ITSWSLCTAGCITGRIMGCNMKTATCHCSIHVSK (also: bicyclic or more (positions not given here)) [cesin NMK, cesin(1–20)-nisin(21–34) hybrid]”: the “antimicrobial activity compared to cesin” value in the series on E. faecium and with L. lactis MG1363 was “significant loss of antimicrobial activity” throughout. The “antimicrobial activity compared to cesin NK” value in the series on L. lactis MG1363 (Fig. 5B (L. lactis MG1363 and E. faecium, sentence names no strain)) is “significantly higher antimicrobial activity”.
